These results are taken from ChEMBL document CHEMBL5608163, “Structure modification of anoplin for fighting resistant bacteria” (Eur J Med Chem, 2024).

In brackets after ≈: the same amount, converted by molar mass. Peptide text beside a SMILES is read from it. * marks the point of attachment. Heptadecanoyl = CCCCCCCCCCCCCCCCC(=O)*; Undecanoyl = CCCCCCCCCCC(=O)*; Nonanoyl = CCCCCCCCC(=O)*

Data set [1] is described as follows: Hemolytic activity in human RBC. Conditions: red blood cells. Format: toxicity, cell-based, Erythrocyte.
For data set [2], the system named is Staphylococcus aureus. Kind of data set: Antibacterial activity against Staphylococcus aureus ATCC 29213 assessed as bacterial growth inhibition measured after 18 hrs by CLSI protocol based two-fold serial microdilution method. The class given is functional.
For data set [3], the system named is Escherichia coli. Kind of data set: Antibacterial activity against Escherichia coli ATCC 25922 assessed as reduction in bacterial growth. The class given is functional.
In data set [4] the test system is Staphylococcus aureus. Briefly: Antibacterial activity against Staphylococcus aureus ATCC 25923 assessed as reduction in bacterial growth incubated for 48 hrs by Mueller-Hinton broth based microdilution method. Format: functional. (In general: In broth dilution the organism is exposed to a series of concentrations in liquid medium.)
For data set [5], the system named is Escherichia coli. Kind of data set: Antibacterial activity against Escherichia coli ATCC 25922 assessed as reduction in bacterial growth incubated for 48 hrs by Mueller-Hinton broth based microdilution method. Format: functional.
For data set [6], the system named is Mycolicibacterium smegmatis. Briefly: Antibacterial activity against Mycobacterium smegmatis mc2 155 assessed as bacterial growth inhibition. The class given is functional.
Data set [7] deals with Bacillus subtilis. Briefly: Antibacterial activity against Bacillus subtilis assessed as bacterial growth inhibition. Format: functional.
In data set [8] the test system is Pseudomonas aeruginosa. Briefly: Antibacterial activity against Pseudomonas aeruginosa PAO1 assessed as bacterial growth inhibition. Format: functional.
Data set [9] deals with Escherichia coli. Kind of data set: Antibacterial activity against Escherichia coli DH5a assessed as bacterial growth inhibition. The class given is functional.
Data set [10] deals with Zymomonas mobilis. Kind of data set: Antibacterial activity against Zymomonas mobilis ATCC 10988 assessed as bacterial growth inhibition. Format: functional.
Data set [11] in a line: Hemolytic activity in human erythrocytes measured after 1 hrs by microplate reader analysis. Format: toxicity, cell-based, Erythrocyte.

As a reminder, the HC50 is the concentration giving 50% haemolysis. As usually defined, the MIC is the lowest concentration found to suppress growth. In turn, `CC[C@H](C)[C@H](NC(=O)[C@@H](NC(=O)[C@H](CCCCN)NC(=O)[C@H](CC(C)C)NC(=O)[C@H](CC(C)C)NC(=O)CN)C(C)C)C(=O)N[C@@H](CCCCN)C(=O)N[C@H](C(=O)N[C@@H](CC(C)C)C(=O)N[C@@H](CC(C)C)C(N)=O)[C@@H](C)O` (H-GLLKVIKTLL-NH2) came in with an HC50 in data set [1] of 54.7 µM. Also, the MIC in data set [2] and in data set [3] was 2.7 µM (≈ 2.96 µg/mL) in each case.
Turning to `CCCCCCCCCCCCCCCCC(=O)NCC(=O)N[C@@H](CC(C)C)C(=O)N[C@@H](CC(C)C)C(=O)N[C@@H](CCCCN)C(=O)N[C@@H](CCCNC(=N)N)C(=O)N[C@H](C(=O)N[C@@H](CCCCN)C(=O)N[C@H](C(=O)N[C@@H](CC(C)C)C(=O)N[C@@H](CC(C)C)C(N)=O)[C@@H](C)O)[C@@H](C)CC` (Heptadecanoyl-GLLKRIKTLL-NH2), the minimal inhibitory concentration (MIC) in [4] amounted to 4.67 µM (≈ 6.57 µg/mL); in data set [5], 2.34 µM (≈ 3.29 µg/mL).
In the case of `CCCCCCCCC(=O)NCC(=O)N[C@@H](CC(C)C)C(=O)N[C@@H](CCCCN)C(=O)N[C@@H](CCCCN)C(=O)N[C@H](C(=O)N[C@H](C(=O)N[C@@H](CCCCN)C(=O)N[C@@H](CCCCN)C(=O)N[C@@H](CC(C)C)C(=O)N[C@@H](CC(C)C)C(N)=O)[C@@H](C)CC)[C@@H](C)CC` (Nonanoyl-GLKKIIKKLL-NH2), the MIC came to 2.3 µM (≈ 2.97 µg/mL) in data set [6]; 3.83 µM (≈ 4.95 µg/mL) in data set [7]; 11.5 µM (≈ 14.8 µg/mL) in [8]; 76.6 µM (≈ 99 µg/mL) in [9]; 11.5 µM (≈ 14.8 µg/mL) in [10]. In addition, the HC50 at 1 h in [11] worked out at 61.9 µM.
Turning to `CCCCCCCCC(=O)NCC(=O)N[C@@H](CC(C)C)C(=O)N[C@@H](CC(C)C)C(=O)N[C@@H](CCCCN)C(=O)N[C@H](C(=O)N[C@H](C(=O)N[C@@H](CCCCN)C(=O)N[C@@H](CCCCN)C(=O)N[C@@H](CC(C)C)C(=O)N[C@@H](CC(C)C)C(N)=O)[C@@H](C)CC)[C@@H](C)CC` (Nonanoyl-GLLKIIKKLL-NH2), the minimal inhibitory concentration (MIC) in data set [6] is 15.5 µM (≈ 19.8 µg/mL); in data set [7] it was 5.43 µM (≈ 6.94 µg/mL); in [8], 23.3 µM (≈ 29.7 µg/mL); in [9], over 155 µM; in data set [10], 7.75 µM (≈ 9.9 µg/mL). In data set [11], this molecule displayed an HC50 at 1 h of over 155 µM.
Consider `CCCCCCCCCCC(=O)NCC(=O)N[C@@H](CC(C)C)C(=O)N[C@@H](CCCCN)C(=O)N[C@@H](CCCCN)C(=O)N[C@H](C(=O)N[C@H](C(=O)N[C@@H](CCCCN)C(=O)N[C@@H](CCCCN)C(=O)N[C@@H](CC(C)C)C(=O)N[C@@H](CC(C)C)C(N)=O)[C@@H](C)CC)[C@@H](C)CC` (Undecanoyl-GLKKIIKKLL-NH2), for which the MIC in [6] was 0.42 µM (≈ 0.555 µg/mL); in data set [7], 5.83 µM (≈ 7.7 µg/mL); in data set [8] it was 16.7 µM (≈ 22 µg/mL); in [9], 25 µM (≈ 33 µg/mL); in [10] it was 12.5 µM (≈ 16.5 µg/mL). Besides, the HC50 at 1 h in [11] was 62.9 µM.
For `CCCCCCCCCCC(=O)NCC(=O)N[C@@H](CC(C)C)C(=O)N[C@@H](CC(C)C)C(=O)N[C@@H](CCCCN)C(=O)N[C@H](C(=O)N[C@H](C(=O)N[C@@H](CCCCN)C(=O)N[C@@H](CCCCN)C(=O)N[C@@H](CC(C)C)C(=O)N[C@@H](CC(C)C)C(N)=O)[C@@H](C)CC)[C@@H](C)CC` (Undecanoyl-GLLKIIKKLL-NH2), the MIC in [6] was 6.08 µM (≈ 7.94 µg/mL); in data set [7], 26 µM (≈ 34 µg/mL); in data set [8], 34.7 µM (≈ 45.3 µg/mL); in data set [9] it was over 174 µM; in data set [10] it was 8.68 µM (≈ 11.3 µg/mL). For the same molecule, in data set [11], the HC50 at 1 h was determined as 38.7 µM.
`CCCCCCCCCCC(=O)NCC(=O)N[C@@H](CC(C)C)C(=O)N[C@@H](CC(C)C)C(=O)N[C@@H](CCCCN)C(=O)N[C@H](C(=O)N[C@H](C(=O)N[C@@H](CCCCN)C(=O)N[C@@H](CCCNC(=N)N)C(=O)N[C@@H](CC(C)C)C(=O)N[C@@H](CC(C)C)C(N)=O)[C@@H](C)CC)[C@@H](C)CC` (Undecanoyl-GLLKIIKRLL-NH2): the MIC in data set [6] was 33.3 µM (≈ 44.4 µg/mL); in data set [7], 167 µM (≈ 222 µg/mL); in data set [8] it was 33.3 µM (≈ 44.4 µg/mL); in data set [9] it was over 167 µM; in data set [10], 12.5 µM (≈ 16.7 µg/mL). Moreover, in [11], the HC50 at 1 h was 56.8 µM.
As for `CCCCCCCCCCC(=O)NCC(=O)N[C@@H](CC(C)C)C(=O)N[C@@H](CC(C)C)C(=O)N[C@@H](CCCCN)C(=O)N[C@@H](CCCCN)C(=O)N[C@H](C(=O)N[C@@H](CCCCN)C(=O)N[C@@H](CCCNC(=N)N)C(=O)N[C@@H](CC(C)C)C(=O)N[C@@H](CC(C)C)C(N)=O)[C@@H](C)CC` (Undecanoyl-GLLKKIKRLL-NH2), the MIC in data set [6] turned out to be 86.2 µM (≈ 116 µg/mL); in [7], 86.2 µM (≈ 116 µg/mL); in data set [8] it was 2.58 µM (≈ 3.48 µg/mL); in data set [9], 34.4 µM (≈ 46.3 µg/mL); in data set [10], 4.3 µM (≈ 5.8 µg/mL). Also, in [11], the HC50 at 1 h was found to be 38 µM.
